In patent US20110027809A1, “METHOD FOR EVALUATION OF DEGREE OF MALIGNANCY OF TUMOR CELL” (priority 2008, published 2011):

How the values were obtained:
[1] = tested on: RTKs in cell membrane fraction MDA-MB-468; assay: RTK activity of cell membrane fraction with or without inhibitor (ELISA, Biotin-poly(Glu, Tyr) substrate); type: biochemical; conditions: treatment solution containing 100 μM inhibitor, 100 μM ATP, FIG. 1
Experimental: (§1) Cultured cells (13 types: A-431, KF, MDA-MB-468, RMUG-L, BT-474, ES2, MDA-MB-453, SK-Br-3, SNG-S, K-562, MDA-MB-231, MCF7 and T47D) were respectively mixed with 1 ml of a homogenizing reagent (containing 20 mM HEPES pH7.4, 0.2% protease inhibitors (PI), 10% glycerol, 200 μM Na3VO4 and 50 mM NaF), pressurized with a pestle to break cell membrane and cell homogenate was obtained. The obtained cell homogenate was centrifuged (20,000×g, 20 min.), the supernatant was discarded and the pellet was collected. The collected pellet was added with a solubilizing solution (containing 20 mM HEPES pH7.4, 1% NP40, 0.2% PI, 10% glycerol, 200 μM Na3VO4 and 50 mM NaF), mixed, pressurized with a pestle to solubilize cell membrane and centrifuged (20,000×g, 20 min.). The supernatant was then collected as the cell membrane fraction, adjusted its total protein amount to 40 μg/ml and used for the following experiments.
(§2) The ELISA plate used was the avidin coated plate (NeutrAvidin HBC White 96-Well Plates With SuperBlock Blocking Buffer; PIERCE). Each well of the plate was washed three times with TBS-T (containing 25 mM Tris, 150 mM NaCl and 0.05% Tween-20). A substrate solution 1 (50 μl; TBS containing 1 μg/ml Biotin-poly(Glu, Tyr) substrate) was added to each well and the plate was incubated with gentle shaking at 25° C. for 1.5 hours. After the incubation, each well was washed three times with TBS-T. Thus, Biotin-poly(Glu, Tyr) substrate was bound to the surface of each well of the ELISA plate. This ELISA plate was used for the following enzyme reaction.
(§3) The cell membrane fractions (25 μl each) of the above tumor cells were placed in seven tubes, respectively. To six tubes were added 25 μl of a treatment solution (20 mM HEPES pH7.4, 20 mM MnCl2, 2 mM DTT, 1% NP40, 10% glycerol, 200 μM Na3VO4, 50 mM NaF, 100 μM ATP, 400 μM PPI (BIOMOL)) containing 100 μM PD153035, 25 μl of treatment solution containing 100 μM AG1478, 25 μl of the treatment solution containing 100 μM 4557W, 25 μl of the treatment solution containing 100 μM Src inhibitor, 25 μl of the treatment solution containing 100 μM PDGFR inhibitor and 25 μl of the treatment solution containing 100 μM VEGFR inhibitor, respectively, to contact the cell membrane fractions with RTK activity inhibitors. To the remained tube was added with 25 μl of the treatment solution without inhibitors. The thus obtained solutions are called as reaction solutions. In order to suppress the enzyme activity of RTKs, the above procedures were carried out at below 4° C.
(§4) Each reaction solution (50 μl was distributed to each well of the ELISA plate prepared as above, and the plate was incubated at 25° C. for about 30 minutes to bring the cell membrane fractions having contacted or not with RTK activity inhibitors into contact with the substrate. After the incubation, each well was added with 100 μl of a reaction termination solution (TBS-T containing 5 mM EDTA) and washed three times with TBS-T. Each well was then washed with 300 μl of StartingBlock T20 (TBS) Blocking Buffer (PIERCE). After washing, each well was added with 100 μl of HRP-labeled primary antibody (p-Tyr (PY20), sc-508 HRP (SANTA Cruz Biotechnology), an antibody recognizing a phosphorylated tyrosine residue) diluted to 1000-fold with StartingBlock T20 (TBS) Blocking Buffer, and the plate was incubated with gentle shaking at 25° C. for about 1.5 hours. After the incubation, wells were washed for five times with TBS-T. After washing, each well was added with 150 μl of chemiluminescent substrate (SuperSignal ELISA PICO (PIERCE)), and after 5 min., luminescence was measured with a microplate reader GENios (TECAN) to measure RTK activities. […]

MDA-MB-468 tumor = assay: Tumor mass of MDA-MB-468 tumor in mice; type: in vivo, mice (BALB/c nu/nu); conditions: 30 mg/kg/day injected for 7 days, Days 3, 5, 8 relative to Day 1, FIG. 4
Experimental: MDA-MB-468 cells were cultured in a medium (DMEM-F12 (Sigma) containing 10% FBS (Hyclone)) until cells become 80% confluent in a 225-cm^2 flask. The obtained cultured cells were suspended in 100 μl of DMEM-F12 at about 1×10^7 cells to obtain a MDA-MB-468 cell suspension.
Fat pad of 10-week-old female mice (BALB/c nu/nu) was injected with 100 μl of the MDA-MB-468 cell suspension. After 14 days, the growth of tumor in mice was confirmed. Thus, tumor was allowed to be formed in three mice.
At 14 days after the injection of the MDA-MB-468 cell suspension, an inhibitor solution was injected to the mouse having tumor. Specifically, AG1478 was dissolved in 100 μl of dimethylsulfoxide (DMSO, Sigma) to obtain a inhibitor solution 1. The mouse was injected with the inhibitor solution 1 so that it received the inhibitor at a dose of 30 mg/kg/day. The inhibitor solution 1 was injected for consecutive 7 days. 4557W was dissolved in DMSO to obtain an inhibitor solution 2. […]
On Day 1, the mice were injected with the inhibitor solutions. On Days 1, 3, 5, and 8, the tumor mass (mm^3) in mice was measured. The tumor mass was calculated from the longitudinal and transverse diameters of the tumor measured, assuming that the shape of the tumor is an oval sphere.
The tumor mass of the mouse injected with DMSO was measured in a similar manner. […]

[2] = tested on: RTKs in cell membrane fraction BT-474; assay: RTK activity of cell membrane fraction with or without inhibitor (ELISA, Biotin-poly(Glu, Tyr) substrate); type: biochemical; conditions: treatment solution containing 100 μM inhibitor, 100 μM ATP, FIG. 1
Experimental: as §1, §2, §3, §4

[3] = tested on: RTKs in cell membrane fraction MCF7; assay: as above; type: biochemical; conditions: treatment solution containing 100 μM inhibitor, 100 μM ATP, FIG. 2
Experimental: as §1, §2, §3, §4

[4] = tested on: RTKs in cell membrane fraction MDA-MB-231; assay: as above; type: biochemical; conditions: treatment solution containing 100 μM inhibitor, 100 μM ATP, FIG. 2
Experimental: as §1, §2, §3, §4

BT-474 cells = assay: VEGF secretion ability (Human VEGF Quantikine ELISA); type: cell-based; conditions: 1 μM inhibitor, 4 hours, FIG. 6
Experimental: (§5) The VEGF secretion ability was measured as follows. Cultured cells of MDA-MB-468, BT-474, MCF7 and MDA-MB-231 were seeded in a 6-well plate (Corning) at 1×10^6 cells/well and cultured at 37° C. in a medium (10% FBS). After 24 hours, the medium is changed to a serum free medium and the culture was continued for further 18 hours. The serum free medium used was DMEM/F12 (SIGMA) or RPMI1640 (SIGMA) supplemented with the antibiotics Antibiotic-Antimycotic (100×) (GIBCO). Thereafter, the medium was changed to the medium (10% FBS) containing 1 μM inhibitor in DMSO (PD153035, AG1478, PDGFR inhibitor or VEGFR inhibitor) and the culture was continued for additional 4 hours. The cell supernatant was then collected. The amount of VEGFs in the supernatant was measured with Human VEGF Quantikine ELISA Kit (R&D system) according to the attached protocol.
(§6) The control experiment was carried out with DMSO only instead of the inhibitor.
(§7) In FIG. 6, the y-axis corresponds to VEGF concentration (pg/ml), which reflects the amount of VEGFs secreted from the cells. In FIG. 6, “DMSO”, “PD”, “AG”, “PDGFR” and “VEGFR” represent the results of control, and the cells treated with PD153035, AG1478, PDGFR inhibitor and VEGFR inhibitor, respectively.

MDA-MB-468 cells = assay: as above; type: cell-based; conditions: 1 μM inhibitor, 4 hours, FIG. 6
Experimental: as §5, §6, §7

tumor cell line (A-431) = conditions: A-431, highest expression level of HER1; Non-Patent Document 1; cited from earlier work

SMILES	RTK activity in the presence of the inhibitor (relative to control RTK activity) [1]	increase in the tumor mass (MDA-MB-468 tumor)	RTK activity in the presence of the inhibitor (relative to control RTK activity) [2]	RTK activity in the presence of the inhibitor (relative to control RTK activity) [3]	RTK activity in the presence of the inhibitor (relative to control RTK activity) [4]	VEGF secretion amount compared to the control value (BT-474 cells)	VEGF secretion amount compared to the control value (MDA-MB-468 cells)	proliferation of the tumor cell line (tumor cell line (A-431))
COc1cc2ncnc(Nc3ccc(OCc4ccccc4)cc3)c2cc1OC [4557W]	decreased	suppressed	–	–	–	–	–	–
COc1cc2ncnc(Nc3cccc(Cl)c3)c2cc1OC [AG1478]	decreased	suppressed	decreased	not decreased	not decreased	decreased	decreased	–
COc1cc2ncnc(Nc3ccc(F)c(Cl)c3)c2cc1OCCCN1CCOCC1 [Iressa, gefitinib]	–	–	–	–	–	–	–	suppressed at the highest degree
COc1cc2ncnc(Nc3cccc(Br)c3)c2cc1OC [PD153035]	decreased	–	decreased	not decreased	not decreased	decreased	decreased	–
